Measured values from paper PMC3388080 (PLoS ONE, 2012).

Columns and labels:
[1] = test system: panel of 79 target receptors; test: CEREP selectivity screen, panel of 79 target receptors; type: binding; details: 10 µM; all targets except A2A, A3, MT3, P2Y, 5HT2C
Protocol: SB-334867 was evaluated in a selectivity screen performed at CEREP (Paris, France). The screen consisted of binding assays on a panel of 79 target receptors. The specific binding (SB) of a radioligand to each target receptor was defined as the difference between the total binding and the nonspecific binding determined in the presence of a cold competitor in excess. […] Details on the CEREP screen are available from www.cerep.fr.
Among the 79 receptors tested, 30 were peptide receptors. […] The selectivity profiles of almorexant and EMPA [37] have been reported previously.

[2] = molecular target: T1, rHCRTR1 (Rattus norvegicus, UniProt P56718); test: Inhibition of [^3H]almorexant binding to HEK293-rHCRTR1 membranes
T1 construct: expressed in transfected cells; host or cells: HEK293 (transient transfection, pCI-Neo vector), membrane preparation
T1 sequence (P56718 1-416): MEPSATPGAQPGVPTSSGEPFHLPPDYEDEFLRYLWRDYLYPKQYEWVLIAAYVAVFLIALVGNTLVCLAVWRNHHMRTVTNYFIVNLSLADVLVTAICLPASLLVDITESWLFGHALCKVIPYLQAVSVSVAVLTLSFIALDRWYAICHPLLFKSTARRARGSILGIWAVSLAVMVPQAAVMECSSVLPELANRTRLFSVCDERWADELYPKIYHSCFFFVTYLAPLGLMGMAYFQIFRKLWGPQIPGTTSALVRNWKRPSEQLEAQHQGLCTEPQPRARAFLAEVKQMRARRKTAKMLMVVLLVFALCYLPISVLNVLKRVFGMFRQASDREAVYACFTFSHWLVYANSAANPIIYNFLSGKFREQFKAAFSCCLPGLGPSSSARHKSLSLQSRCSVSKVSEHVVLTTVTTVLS
Excerpt: (§1) The rat cDNAs encoding HCRTR1 (Accession No. P56718) and HCRTR2 (Accession No. P56719) were subcloned into pCI-Neo expression vectors (Promega, Madison, WI) and used to transfect HEK293 cells (acquired commercially from ATCC-LGC, Molsheim, France) as previously described.

[3] = molecular target: T2, rHCRTR2 (Rattus norvegicus, UniProt P56719); test: Inhibition of [^3H]almorexant binding to HEK293-rHCRTR2 membranes
T2 construct: expressed in transfected cells; host or cells: HEK293 (transient transfection, pCI-Neo vector), membrane preparation
T2 sequence (P56719 whole entry): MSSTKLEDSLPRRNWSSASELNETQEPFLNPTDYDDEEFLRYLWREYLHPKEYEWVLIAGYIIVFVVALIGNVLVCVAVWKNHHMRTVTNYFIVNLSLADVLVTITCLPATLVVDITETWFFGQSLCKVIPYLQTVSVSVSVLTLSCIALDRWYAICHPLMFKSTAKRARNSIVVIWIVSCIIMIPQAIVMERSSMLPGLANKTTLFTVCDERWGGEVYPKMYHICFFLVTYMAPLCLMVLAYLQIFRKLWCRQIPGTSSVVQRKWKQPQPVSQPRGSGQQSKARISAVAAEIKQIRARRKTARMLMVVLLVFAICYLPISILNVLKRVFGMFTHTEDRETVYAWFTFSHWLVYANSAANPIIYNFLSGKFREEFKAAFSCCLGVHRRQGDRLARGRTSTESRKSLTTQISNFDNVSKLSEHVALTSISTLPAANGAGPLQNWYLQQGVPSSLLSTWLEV
Excerpt: as §1

Structure (SMILES) | activity at all other targets tested [1] | Ki [2] | Ki [3]
Cc1nc2ccc(NC(=O)Nc3ccnc4cccnc34)cc2o1.Cl [SB-334867, 1-(2-methylbenzoxazol-6-yl)-3-[1], [5]naphthyridin-4-yl-urea hydrochloride] | < 40% |  | 
CNC(=O)[C@@H](c1ccccc1)N1CCc2cc(OC)c(OC)cc2[C@@H]1CCc1ccc(C(F)(F)F)cc1 [almorexant, (2R)-2-[(1S)-6,7-Dimethoxy-1-[2-(4-trifluoromethyl-phenyl)-ethyl]-3,4-dihydro-1H-isoquinolin-2-yl]-N-methyl-2-phenyl-acetamide] |  | 7.1 ± 0.7 nM | 2 nM
